US12054487B2, “Muscarinic acetylcholine M1 receptor antagonists” (Contineum Therapeutics, Inc., priority 2018, dated 2024)

Columns and labels:
Assay type in all cases: cell-based
M3 = M3 (Homo sapiens, UniProt P20309); test: In vitro functional assay of muscarinic acetylcholine receptor activity, M3; conditions: antagonist activity; M3 method not separately described
human M1 receptor = biological target: T1, human M1 receptor (Homo sapiens, UniProt P11229); test: In vitro functional assay of muscarinic acetylcholine receptor activity (aequorin calcium flux, antagonist mode vs EC80 acetylcholine), M1; conditions: CHO-K1 cells stably expressing human M1 receptor with Aequorin; decrease in EC80 acetylcholine response
T1 construct: host or cells: CHO-K1
T1 sequence (P11229 1-460): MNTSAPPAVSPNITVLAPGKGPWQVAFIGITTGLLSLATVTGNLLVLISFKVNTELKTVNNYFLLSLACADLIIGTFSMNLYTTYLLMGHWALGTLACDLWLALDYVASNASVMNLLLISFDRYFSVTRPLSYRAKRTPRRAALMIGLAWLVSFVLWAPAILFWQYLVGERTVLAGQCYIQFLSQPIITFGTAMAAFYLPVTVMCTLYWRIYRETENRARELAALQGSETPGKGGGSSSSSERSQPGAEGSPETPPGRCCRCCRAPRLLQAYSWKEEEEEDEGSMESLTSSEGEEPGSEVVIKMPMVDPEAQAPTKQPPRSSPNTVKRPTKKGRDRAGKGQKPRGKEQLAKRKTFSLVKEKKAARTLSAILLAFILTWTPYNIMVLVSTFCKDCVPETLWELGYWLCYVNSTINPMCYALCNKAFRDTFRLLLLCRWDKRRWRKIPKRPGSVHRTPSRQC
Outline: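 Antagonism at M1 was measured as a concentration-dependent reduction of the EC80 acetylcholine-evoked aequorin luminescence, from which IC50 was derived. Human M1 CHO-K1 aequorin cells were first loaded with 5 uM coelenterazine h for 4 h and exposed to compound for 30 min at room temperature.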

M2 = biological target: T2, M2 (Homo sapiens, UniProt P08172); test: In vitro functional assay of muscarinic acetylcholine receptor activity, M2; conditions: antagonist activity; M2 method not separately described
T2 sequence (P08172 1-466): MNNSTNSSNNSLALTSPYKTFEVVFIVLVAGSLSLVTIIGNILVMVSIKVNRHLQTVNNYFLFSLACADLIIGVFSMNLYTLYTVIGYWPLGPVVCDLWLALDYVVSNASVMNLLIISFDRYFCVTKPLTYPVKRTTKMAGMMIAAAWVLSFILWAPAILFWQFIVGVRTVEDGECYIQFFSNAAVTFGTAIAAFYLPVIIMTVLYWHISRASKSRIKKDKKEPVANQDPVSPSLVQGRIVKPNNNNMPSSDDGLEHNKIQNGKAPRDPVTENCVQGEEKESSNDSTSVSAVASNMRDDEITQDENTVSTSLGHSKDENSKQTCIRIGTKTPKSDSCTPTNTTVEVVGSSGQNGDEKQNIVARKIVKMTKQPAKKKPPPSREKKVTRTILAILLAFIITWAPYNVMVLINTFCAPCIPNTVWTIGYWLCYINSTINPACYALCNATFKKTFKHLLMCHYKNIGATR

Sequence of M3 (P20309 whole entry): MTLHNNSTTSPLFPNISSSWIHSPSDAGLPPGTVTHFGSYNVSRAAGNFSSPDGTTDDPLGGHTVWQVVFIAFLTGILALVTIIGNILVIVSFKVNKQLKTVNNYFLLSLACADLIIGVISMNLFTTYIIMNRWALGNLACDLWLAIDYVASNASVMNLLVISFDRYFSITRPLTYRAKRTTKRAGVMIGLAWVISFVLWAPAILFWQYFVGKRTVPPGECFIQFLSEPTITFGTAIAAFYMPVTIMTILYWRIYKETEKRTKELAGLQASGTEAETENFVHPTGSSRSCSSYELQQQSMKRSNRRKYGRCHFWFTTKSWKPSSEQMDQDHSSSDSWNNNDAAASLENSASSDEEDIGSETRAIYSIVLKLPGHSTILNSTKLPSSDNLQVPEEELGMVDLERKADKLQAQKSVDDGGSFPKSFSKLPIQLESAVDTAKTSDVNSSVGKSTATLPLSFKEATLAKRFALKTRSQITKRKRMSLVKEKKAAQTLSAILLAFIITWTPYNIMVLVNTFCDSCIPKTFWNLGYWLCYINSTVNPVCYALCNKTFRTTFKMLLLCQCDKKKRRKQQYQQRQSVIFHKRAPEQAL

Row | IC50 (M3) | IC50 (human M1 receptor) | IC50 (M2) | Compound
1 | < 0.1 µM | < 0.1 µM | 0.1 to 1 µM | N#Cc1ccc(N2CCN3C(=O)[C@@H](CCCc4cccn5ncnc45)C[C@H]3C2)cn1 [Example 67, 5-((7S,8aS)-7-(3-([1,2,4]triazolo[1,5-a]pyridin-8-yl)propyl)-6-oxohexahydropyrrolo[1,2-a]pyrazin-2(1H)-yl)picolinonitrile]
2 | < 0.1 µM | < 0.1 µM | 0.1 to 1 µM | N#Cc1ccc(N2CCN3C(=O)[C@@H](CCCc4cccn5ncnc45)C[C@H]3C2)nc1 [Example 68, 6-((7S,8aS)-7-(3-([1,2,4]triazolo[1,5-a]pyridin-8-yl)propyl)-6-oxohexahydropyrrolo[1,2-a]pyrazin-2(1H)-yl)nicotinonitrile]
3 | > 10 µM | 1 to 10 µM | 1 to 10 µM | O=C1[C@@H](CCCc2cccn3ncnc23)C[C@H]2CN(c3ccc(F)cc3F)CCN12 [Example 71, (7S,8aS)-7-(3-([1,2,4]triazolo[1,5-a]pyridin-8-yl)propyl)-2-(2,4-difluorophenyl)hexahydropyrrolo[1,2-a]pyrazin-6(2H)-one]
4 | 1 to 10 µM | < 0.1 µM | 1 to 10 µM | O=C1[C@@H](CCCc2c(F)ccn3ncnc23)C[C@H]2CN(c3ccc(F)cn3)CCN12 [Example 78, (7S,8aS)-7-(3-{7-fluoro-[1,2,4]triazolo[1,5-a]pyridin-8-yl}propyl)-2-(5-fluoropyridin-2-yl)-octahydropyrrolo[1,2-a]pyrazin-6-one]
5 | 1 to 10 µM | 0.1 to 1 µM | 1 to 10 µM | O=C1[C@@H](CCCc2cccn3nccc23)C[C@H]2CN(c3ccc(F)cn3)CCN12 [Example 87, (7S,8aS)-2-(5-fluoropyridin-2-yl)-7-(3-(pyrazolo[1,5-a]pyridin-4-yl)propyl)hexahydropyrrolo[1,2-a]pyrazin-6(2H)-one]
6 | 1 to 10 µM | < 0.1 µM | 1 to 10 µM | O=C1[C@@H](CCCc2cccn3nccc23)C[C@H]2CN(c3ncc(F)cn3)CCN12 [Example 88, (7S,8aS)-2-(5-fluoropyrimidin-2-yl)-7-(3-(pyrazolo[1,5-a]pyridin-4-yl)propyl)hexahydropyrrolo[1,2-a]pyrazin-6(2H)-one]
7 | 1 to 10 µM | < 0.1 µM | 1 to 10 µM | O=C1C(CCCc2c(F)ccc3nccn23)C[C@H]2CN(c3ccc(F)cn3)CCN12 (stereo partly drawn) [Example 89, (8aS)-7-(3-(6-fluoroimidazo[1,2-a]pyridin-5-yl)propyl)-2-(5-fluoropyridin-2-yl)hexahydropyrrolo[1,2-a]pyrazin-6(2H)-one]
8 | 1 to 10 µM | < 0.1 µM | > 10 µM | O=C1[C@@H](CCCc2cccc3nccnc23)C[C@H]2CN(c3ccc(F)cn3)CCN12 [Example 93, (7S,8aS)-2-(5-fluoropyridin-2-yl)-7-(3-(quinoxalin-5-yl)propyl)hexahydropyrrolo[1,2-a]pyrazin-6(2H)-one]
